Assay results as given in patent US7008950B1, “Benzofurans as suppressors of neurodegeneration” (Takeda Chemical Industries, Ltd., priority 1997, dated 2006).

System: human neuroblastoma SK—N—SH cells
Assay: Cell protective activity against β-amyloid 25-35-induced neurotoxicity (Alamar Blue cell viability)
Format: cell-based
Settings: test compound 1 μM with β-amyloid 25-35 10 μM; rhIFN-γ-pretreated SK—N—SH cells; viability by Alamar Blue after 3 days; [(A−B)/(C−B)]×100
Source text: Evaluation of cell protective activity against β-amyloid neurotoxicity in human neuroblastoma SK—N—SH cells.
• Human neuroblastoma SK—N—SH cells: obtained from American Type Tissue Culture Collection (ATCC). DMEM/F-12 medium: obtained from Nikken Biological Medicine Laboratory Co. • Ca^++ and Mg^++ free phosphate-buffered saline (PBS(−)): obtained Nikken Biological Medicine Laboratory Co. • N2 supplement™, and EDTA solution: obtained from Gibco BRL Co. • Fetal calf serum, and mixture of penicillin (5000 U/mL) and streptomycin (5 mg/mL): obtained from Bio Whittaker Co. • Recombinant human interferon gamma (rhIFN-γ): obtained from Wako Pure Chemical Co. • Alamar Blue™ reagent: obtained from AccuMed International, Inc. • Culture flasks: manufactured by Falcon Co. Collagen-coated, 96-well multi-plate: manufactured by Iwaki Glass Co. • β-amyloid 25-35: obtained from Bachem AG. • Other reagents: commercially-available special-grade chemicals. b) Test Method (1) Cultivation of SK—N—SH cells
SK—N—SH cells were sub-cultured in DMEM/F12 medium containing 5% FCS, 0.5% N2 supplement™, 1% of mixture of penicillin (5000 U/mL) and streptomycin (5 mg/mL), under 10 t CO2 and 90% air, using CO2 incubator. At sub-confluent condition, cells were harvested from culture flask with PBS(−) containing 2.5 mM EDTA, and plated at a density of 1.0×10^4 cells/100 μl of culture medium/well in collagen-coated 96-well multi-plate. The next day, 80 μl of culture medium was substituted with DMEM/F12 medium (containing neither FCS nor N2 supplement) containing 1.25 ng/mL of rhIFN-γ, and after 24 hr cultivation cells were used for cell toxicity assay mentioned below.
(2) Measurement of cell protective activity of test compounds against β-amyloid 25-35-induced neurotoxicity
After pretreatment of SK—N—SH cells with rhIFN-γ in collagen-coated 96 well multi-plate, cell toxicity assay was started by addition of β-amyloid 25-35 and test compound. Briefly, 80 μl of culture medium was removed, and 40 μl of β-amyloid 25-35 and 40 μl of test compound were added to cultures at the same time. The final concentrations of β-amyloid 25-35 and test compounds were 10 μM and 1 μM, respectively.
The test compound was dissolved at 10 mM in dimethylsulfoxide (DMSO) and diluted in DMEM/F12 medium. β-amyloid 25-35 was dissolved at 5 mM in sterile pure water, and stored at −80° C. Immediately before use, the stock solution β-amyloid 25-35 was diluted in DMEM/F12 medium and sonicated.
(3) Evaluation of cell protective activity of test compound
Cell viability was assessed by the reduction of Alamar Blue™ reagents, 3 days after starting of the cell toxicity assay. Briefly, 20 μl of culture medium was substituted with 20 μl of Alamar Blue™ reagents and incubated 4 hours. Absorbances were determined at wavelengths of 570 nm and 600 nm using a plate reader (MTP-32 Micro-plate Reader, manufactured by Corona Co.). Amount of reduced Alamar Blue reagents was determined by subtracting absorbance600 from absorbance570. The cell protective activity of the test compound was estimated according to the following equation: • Cell protective activity of compound [(A−B)/(C−B)]×100 (%) 20 where; • A: cell viability of the group treated with both the test compound and β-amyloid • B: cell viability of the group treated with β-amyloid only • C: cell viability of the control group Results
Cell viability of the group treated with both the test compound and β-amyloid was compared with that 30 group treated with β-amyloid only using Dunnett's test.
Cell viability of each group was determined using at least 4 culture well.

Compound | Cell Protecting Activity (%)
Cc1c(C)c2c(c(C)c1OCc1ccccc1)C(c1ccc(C(C)C)cc1)C(C)(C)O2 (stereo not shown) [Example 1, 5-Benzyloxy-3-(4-isopropylphenyl)-2,2,4,6,7-pentamethyl-2,3-dihydrobenzofuran] | 30.7%
Cc1c(C)c2c(c(C)c1OCCC(c1ccccc1)c1ccccc1)C(c1ccc(C(C)C)cc1)C(C)(C)O2 (stereo not shown) [Example 14, 5-(3,3-Diphenylpropyloxy)-3-(4-isopropylphenyl)-2,2,4,6,7-pentamethyl-2,3-dihydrobenzofuran] | 44.2%
Cc1c(C)c2c(c(C)c1OCC=Cc1ccccc1)C(c1ccc(C(C)C)cc1)C(C)(C)O2 (stereo not shown) [Example 12, 3-(4-Isopropylphenyl)-2,2,4,6,7-pentamethyl-5-(3-phenyl-2-propen-1-yloxy)-2,3-dihydrobenzofuran] | 44.8%
Cc1c(C)c2c(c(C)c1OCCc1ccccc1)C(c1ccc(C(C)C)cc1)C(C)(C)O2 (stereo not shown) [Example 25, 3-(4-Isopropylphenyl)-2,2,4,6,7-pentamethyl-5-(2-phenylethyl)oxy-2,3-dihydrobenzofuran] | 47.0%
Cc1c(C)c2c(c(C)c1OCc1ccccc1)C(c1ccc(N(C)C)cc1)C(C)(C)O2 (stereo not shown) [Example 2, 5-Benzyloxy-3-[4-(dimethylamino)phenyl]-2,2,4,6,7-pentamethyl-2,3-dihydrobenzofuran] | 27.9%
Cc1c(C)c2c(c(C)c1OCc1ccccc1)CC(C)(CN1CCN(c3ccccc3)CC1)O2 (stereo not shown) [Example 3, 5-Benzyloxy-2,4,6,7-tetramethyl-2-(4-phenyl-1-piperazinyl)methyl-2,3-dihydrobenzofuran] | 39.4%
COc1ccc(COc2c(C)c(C)c3c(c2C)C(c2ccc(N4CCOCC4)cc2)C(C)(C)O3)cc1 (stereo not shown) [Example 7, 5-(4-Methoxybenzyloxy)-3-[4-(4-morpholinyl)phenyl]-2,2,4,6,7-pentamethyl-2,3-dihydrobenzofuran] | 27.3%
